The source of these data is article PMC12067145 (ACS Medicinal Chemistry Letters, 2025).

One data set concerns the target T1, human TREK-1 (Homo sapiens, UniProt O95069).
T1 sequence (O95069 1-426): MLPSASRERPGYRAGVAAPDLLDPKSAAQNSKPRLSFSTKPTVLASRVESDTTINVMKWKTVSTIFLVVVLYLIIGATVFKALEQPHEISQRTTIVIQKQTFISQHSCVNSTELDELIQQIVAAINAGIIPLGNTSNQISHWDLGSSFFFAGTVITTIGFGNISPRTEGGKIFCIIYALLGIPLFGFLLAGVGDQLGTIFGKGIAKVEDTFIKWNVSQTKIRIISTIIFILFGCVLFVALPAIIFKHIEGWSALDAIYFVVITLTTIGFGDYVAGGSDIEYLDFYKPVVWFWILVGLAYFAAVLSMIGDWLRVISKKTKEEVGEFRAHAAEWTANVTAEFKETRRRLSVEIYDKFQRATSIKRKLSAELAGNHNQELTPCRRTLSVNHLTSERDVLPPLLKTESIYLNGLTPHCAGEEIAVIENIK
The experiment in a line: TREK-1 thallium (Tl+) flux assay. The settings on record: for IC50: read-out: h TREK-1 Tl+ IC50, thallium flux, hTREK-1/CHO.

A short description of the next data set: ChromatoLogD. In kind it is physicochemical. An excerpt: 1 TREK-1 Inhibitory Activity and Lipophilicity of Analogues 10 | column: ChromatoLogD
A short description of data set [1]: Liver microsome intrinsic clearance (human). In kind it is in vitro ADME. The note with it: for CLint scaled at 1 µM: pH 7.4, human liver microsomes, read-out: LMS CLINT human. How it is done:
(§1) After a 5 min preincubation, the reaction was initiated by the addition of NADPH (1 mM). At selected time intervals between 0 ~ 60 min (e.g. 0, 3, 7, 15, 25, 45 and/or 60 min), aliquots were taken and subsequently placed into a 96-well plate containing cold acetonitrile with an internal standard (50 ng/mL carbamazepine). Plates were then centrifuged at 3000 rcf (4 °C) for 10 min, and the supernatant was transferred to a separate 96-well plate and diluted 1:1 with water for LC/MS/MS analysis. The in vitro half-life (T 1/2, min, Eq. 1), intrinsic clearance (CLint, mL/min/kg, Eq. 2), and subsequent predicted hepatic clearance (CLhep, mL/min/kg, Eq. 3) were determined employing the following equations: […]
(§2) where k represents the slope from linear regression analysis of the natural log percent remaining of a test compound as a function of incubation time […]
(§3) (2) CLint = in vitroT1/2 x mg microsomes x gram liver x kg body wt ascale-up factors: of 20 (human) or 45 (rat) or 87.5 (mouse) […]
(§4) where Qh (hepatic blood flow, mL/min/kg) is 21 (human) or 70 (rat) or 90 (mouse).
(§5) LC/MS/MS Bioanalysis of Samples from Plasma Protein Binding and Intrinsic Clearance […]
(§6) Samples were analyzed on a Thermo Electron TSQ Quantum Ultra triple quad mass spectrometer (San Jose, CA) via electrospray ionization (ESI) with two Themo Electron Accella pumps (San Jose, CA), and a Leap Technologies CTC PAL autosampler (Carrboro, NC). Analytes were separated by gradient elution on a dual column system with two Thermo Hypersil Gold (2.1 x 30 mm, 1.9 µm) columns (San Jose, CA) thermostated at 40 °C. HPLC mobile phase A was 0.1% formic acid in water and mobile phase B was 0.1% formic acid in acetonitrile. The gradient started […]
(§7) for 0.2 min; returned to 10% B in 0.1 min. The total run time was 1.3 min and the HPLC flow rate was 0.8 mL/min. While pump 1 ran the gradient method, pump 2 equilibrated the alternate column isocratically at 10% B. Compound optimization, data collection, and processing were performed using Thermo Electron's QuickQuan software (v2.3) and Xcalibur (v2.0.7 SP1). […]

The nature of data set [2]: Rat IV:PBL PK cassette study / in vivo rat clearance. The note with it: male, Sprague-Dawley, in vivo rat plasma clearance, read-out: rat CLp; for clearance: intravenous; for clearance at 24 h: iv, 0.2 mg/kg.
Data set [3] in a line: Plasma protein binding (human). In kind it is in vitro ADME. The note with it: pH 7.4, read-out: PPB human (converted). How it is done: (§8) 0.3% DMSO - ΔRatio of 1 µM control compound)x100
(§9) In vitro Plasma protein binding and Brain homogenate binding: Determination of fraction unbound (f u) in plasma was conducted in vitro via equilibrium dialysis using HTDialysis (HTD) membrane plates. The top half of the plate was filled with 100 uL of Dubelco’s Phosphate Buffered Saline, pH 7.4 (DPBS). Compounds were diluted into plasma from each species (5 µM final concentration), which was aliquoted in triplicate to the ‘bottom half’ of the prepared HTD plate wells. The HTD plate was sealed and incubated for 6 hours at 37 °C. Following incubation, each well (both top and bottom halves) were transferred (20 µL) to the corresponding wells of a 96-shallow-well (V-bottom) plate. The daughter plates were then matrix-matched (DPBS side wells received equal volume of plasma, and plasma side wells received equal volume of DPBS), and extraction solution (120 µL; acetonitrile containing 50 nM carbamazepine as IS) was added to all wells of both daughter plates to precipitate protein and extract test article. The plates were then sealed and centrifuged (3500 rcf) for 10 minutes at ambient temperature. Supernatant (60 µL) from each well of the daughter plates was then transferred to the corresponding wells of new daughter plates (96-shallow-well, V bottom) containing water (Milli-Q, 60 µL/well), and the plates were sealed in preparation for LC-MS/MS analysis (see LC-MS/MS analysis method below).
(§10) The unbound fraction (f u) was calculated following the equation below, and mean values for each species were calculated from 3 replicates. A similar approach was used to determine the degree of brain homogenate binding, which employed the same methodology and procedure with the following modifications: 1) a final compound concentration of 1 μM was used, 2) naïve rat brains were homogenized in DPBS (1:3 composition of brain: DPBS, w/w) using a Mini-Bead Beater™ machine in order to obtain brain homogenate, which was then treated in the same manner as the plasma samples in the previously described plasma protein binding assay. Fraction unbound for both plasma and brain samples was determined using Equation 4.

The nature of data set [4]: Liver microsome intrinsic clearance (mouse). The settings on record: pH 7.4; mouse liver microsomes; read-out: LMS CLINT mouse. In kind it is in vitro ADME. The method, then: as §1, §2, §3, §4, §5, §6, §7
A short description of data set [5]: Plasma protein binding (mouse). It is filed as in vitro ADME. The settings on record: pH 7.4, read-out: PPB mouse (converted). How it is done: as §8, §9, §10
The next data set can be described thus: Aqueous solubility. It is filed as physicochemical. The note with it: cyclopropyl amides versus N-Boc series.
A short description of data set [6]: Plasma protein binding (species not stated). It is filed as in vitro ADME. The note with it: pH 7.4. How it is done:
as §8
as §9, with “Supernatant (60 µL) from each well of the daughter plates was then transferred to the corresponding wells of new daughter plates (96-shallow-well, V bottom) containing water (Milli-Q, 60 µL/well), and the plates were sealed in preparation for LC-MS/MS analysis (see LC-MS/MS analysis method below).” left out
The unbound fraction (f u) was calculated following the equation below, and mean values for each species were calculated from 3 replicates. […] Fraction unbound for both plasma and brain samples was determined using Equation 4.

Data set [7] is described as follows: Liver microsome intrinsic clearance (rat). It is filed as in vitro ADME. The settings on record: pH 7.4; rat liver microsomes; read-out: LMS CLINT rat. The method, then:
as §1, §2, §3, §4, §5, §6, §7

The test system of a further data set is TREK-1. The note with it: cited from earlier work.

Each structure is given as a SMILES string. Read-outs that look alike come from different tables or passages of the source.

For `Cc1cc(OCc2ccccc2)ccc1NC(=O)c1cc(NC(=O)OC(C)(C)C)ccc1Cl` [Compound 6], on human TREK-1 (versus HTS hit 5), the “increase in TREK-1 potency” value is given as approximately 17 fold. This molecule also registered a chromatographic logD in “ChromatoLogD” of 4.9.
With `Cc1cc(OCc2ccccc2)cnc1NC(=O)c1cc(NC(=O)OC(C)(C)C)ccc1Cl` [Compound 10a], the IC50 on human TREK-1 was determined as 560 nM. The CLint scaled at 1 µM in data set [1] worked out at 137 mL/min/kg. In the data set “ChromatoLogD”, this molecule displayed a chromatographic logD of 4.4.
For the molecule `Cc1nc(OCc2ccccc2)ccc1NC(=O)c1cc(NC(=O)OC(C)(C)C)ccc1Cl` [Compound 10b], the chromatographic logD in “ChromatoLogD” amounted to 5.
As to `Cc1nc(OCc2ccccc2)cnc1NC(=O)c1cc(NC(=O)OC(C)(C)C)ccc1Cl` [Compound 10c], the clearance in data set [2] was 135 mL/min/kg. For the same molecule, the chromatographic logD in “ChromatoLogD” amounted to 4.8.
As for `Cc1cc(C#Cc2ccccc2)cnc1NC(=O)c1cc(NC(=O)OC(C)(C)C)ccc1Cl` [Compound 11], the fraction unbound at 6 h, 5 µM was 0.005 in [3] and 0.013 in data set [5]. Also, the “increase in TREK-1 potency” value at human TREK-1 (versus 10a) is given as approximately 4 fold. In addition, the CLint scaled at 1 µM was 13 mL/min/kg in data set [1] and 34 mL/min/kg in data set [4]. For the same molecule, the “lowering of human microsomal intrinsic clearance” value in data set [1] (versus 10a) was 10 fold.
For the molecule `Cc1nc(C#Cc2ccccc2)cnc1NC(=O)c1cc(NC(=O)OC(C)(C)C)ccc1Cl` [Compound 12], the clearance in data set [2] amounted to 25 mL/min/kg.
With `CC(C)(C)OC(=O)Nc1ccc(Cl)c(C(=O)Nc2ncc(C#Cc3ccccc3)cc2F)c1` [Compound 13a], the fraction unbound at 6 h, 5 µM in [3] is 0.002; in data set [5], 0.011. In addition, the CLint scaled at 1 µM in data set [1] was determined as 10 mL/min/kg; in data set [4] it was 6 mL/min/kg.
On to `CC(C)(C)OC(=O)Nc1ccc(Cl)c(C(=O)Nc2ncc(C#Cc3ccccc3)cc2Cl)c1` [Compound 13b], for which the fraction unbound at 6 h, 5 µM in [5] was less than 0.001.
For `Cc1cc(C#Cc2ccccc2F)cnc1NC(=O)c1cc(NC(=O)OC(C)(C)C)ccc1Cl` [Compound 14a], the IC50 on human TREK-1 was 540 nM. Besides, the CLint scaled at 1 µM in data set [1] and in [4] was 13 mL/min/kg each time.
As to `Cc1cc(C#Cc2cccc(F)c2)cnc1NC(=O)c1cc(NC(=O)OC(C)(C)C)ccc1Cl` [Compound 14b], the fraction unbound at 6 h, 5 µM in data set [3] and in data set [5] was less than 0.001 each time. Also, the CLint scaled at 1 µM in data set [1] stood at 20 mL/min/kg; in data set [4], 40 mL/min/kg.
For `Cc1cc(C#Cc2ccncc2)cnc1NC(=O)c1cc(NC(=O)OC(C)(C)C)ccc1Cl` [Compound 14d], the CLint scaled at 1 µM in data set [1] amounted to 27 mL/min/kg; in [4], 78 mL/min/kg.
For `Cc1cc(C#Cc2ccccc2)cnc1NC(=O)c1cc(NC(=O)C2CC2)ccc1Cl` [Compound 15a], in the data set “Aqueous solubility”, the “aqueous solubility (in words)” value is “no improvement on aqueous solubility”. Further, on human TREK-1, the IC50 amounted to 180 nM. For the same molecule, the clearance at 24 h in data set [2] stood at 12 mL/min/kg. Besides, the CLint scaled at 1 µM came out at 13 mL/min/kg in data set [1], 69 mL/min/kg in [4] and 25 mL/min/kg in [7]. Further, the fraction unbound at 6 h, 5 µM in data set [6] was less than 0.003.
On to `Cc1cc(C#Cc2ccc(F)cc2)cnc1NC(=O)c1cc(NC(=O)C2CC2)ccc1Cl` [Compound 15b], for which, in “Aqueous solubility”, the “aqueous solubility (in words)” value is given as “no improvement on aqueous solubility”. Besides, the clearance at 24 h in [2] stood at 1.4 mL/min/kg. Further, the CLint scaled at 1 µM was 10 mL/min/kg in [1], 50 mL/min/kg in data set [4] and 10 mL/min/kg in [7]. Besides, the fraction unbound at 6 h, 5 µM in data set [6] is less than 0.003.
Consider `Cc1ccccc1CC1OC(=O)c2cc(C3CCNCC3)ccc21` (centres unmarked) [Cpd8], for which the IC50 in the data set with TREK-1 was 810 nM.
For the molecule `O=C(CSc1ccc2ccccc2n1)NNC(=O)c1ccc(Cl)cc1` [TKIM], the IC50 with TREK-1 (state-dependent TREK-1 inhibitor) is 2960 nM.
